Our source for the IC50 values is patent US6881741B2 (ViroChem Pharma Inc., priority 2001, dated 2005).

Where only a bound is given, the exact number is not on record here.

For one assay, the target named is recombinant HCV NS5B (HCV RNA-dependent RNA polymerase) (Hepatitis C virus genotype 1b, UniProt P26663). As to the kind of experiment: biochemical. The note with it: HCV polymerase activity, list of compounds of Example 27; read-out: IC50 (polymerase activity).
recombinant HCV NS5B (HCV RNA-dependent RNA polymerase), sequence (P26663 2420-3010 limits assumed): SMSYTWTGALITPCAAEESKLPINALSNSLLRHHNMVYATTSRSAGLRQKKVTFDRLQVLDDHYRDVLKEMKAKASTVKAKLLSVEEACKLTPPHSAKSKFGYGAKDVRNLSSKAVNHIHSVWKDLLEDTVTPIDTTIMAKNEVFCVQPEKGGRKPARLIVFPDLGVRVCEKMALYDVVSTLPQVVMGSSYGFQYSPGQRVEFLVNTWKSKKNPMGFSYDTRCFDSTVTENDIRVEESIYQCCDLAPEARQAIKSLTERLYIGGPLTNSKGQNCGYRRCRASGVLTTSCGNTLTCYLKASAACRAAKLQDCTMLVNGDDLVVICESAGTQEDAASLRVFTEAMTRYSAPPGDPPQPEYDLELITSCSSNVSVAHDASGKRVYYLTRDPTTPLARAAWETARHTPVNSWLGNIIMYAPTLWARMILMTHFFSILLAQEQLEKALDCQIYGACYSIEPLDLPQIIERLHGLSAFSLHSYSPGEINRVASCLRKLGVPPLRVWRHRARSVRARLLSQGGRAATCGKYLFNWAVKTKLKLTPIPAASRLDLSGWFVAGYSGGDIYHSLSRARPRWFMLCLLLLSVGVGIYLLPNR
One may read the IC50 as the concentration needed to halve the response being measured. Consider `CCC(=O)N(Cc1ccc(C(F)(F)F)cc1)c1cc(-c2ccccc2)sc1C(=O)O` [Compound 410, 5-PHENYL-3-[PROPIONYL-(4- TRIFLUOROMETHYL-BENZYL)-AMINO]- THIOPHENE-2-CARBOXYLIC ACID], for which the IC50 was 5 to 20 µM.

Regarding `CCC(=O)N(Cc1cccc(Cl)c1)c1cc(-c2ccccc2)sc1C(=O)O` [Compound 477, 3-[(3-CHLORO-BENZYL)-PROPIONYL- AMINO]-5-PHENYL-THIOPHENE-2- CARBOXYLIC ACID], the IC50 is 5 to 20 µM. Same read-out and setting: the figure for `O=C(O)c1sc(-c2ccccc2)cc1N(Cc1ccc(C(F)(F)F)cc1)C(=O)C1CC1` [Compound 413, 3-[CYCLOPROPANECARBONYL-(4- TRIFLUOROMETHYL-BENZYL)-AMINO]-5- PHENYL-THIOPHENE-2-CARBOXYLIC ACID] is 5 to 20 µM; for `CCCC(=O)N(Cc1ccc(C(F)(F)F)cc1)c1cc(-c2ccccc2)sc1C(=O)O` [Compound 415, 3-[BUTYRYL-(4-TRIFLUOROMETHYL- BENZYL)-AMINO]-5-PHENYL-THIOPHENE- 2-CARBOXYLIC ACID] it is 5 to 20 µM. Same read-out and setting: the figure for `CCC(=O)N(Cc1ccccc1C)c1cc(-c2ccccc2)sc1C(=O)O` [Compound 427, 3-[(2-METHYL-BENZYL)-PROPIONYL- AMINO]-5-PHENYL-THIOPHENE-2- CARBOXYLIC ACID] is 5 to 20 µM. The same measure, in the same setting: the figure for `O=C(O)c1sc(-c2ccccc2)cc1N(C(=O)c1ccc(Cl)cc1Cl)C1CCCNC1` (centres unmarked) [Compound 514, 3-[(2,4-DICHLORO-BENZOYL)-PIPERIDIN- 3-YL-AMINO]-5-PHENYL-THIOPHENE-2- CARBOXYLIC ACID; COMPOUND WITH GENERIC INORGANIC NEUTRAL COMPONENT] is less than 5 µM; for `O=C(O)c1sc(-c2ccccc2)cc1N(Cc1ccc(F)cc1F)C(=O)C1CCC1` [Compound 495, 3-[CYCLOBUTANECARBONYL-(2,4- DIFLUORO-BENZYL)-AMINO]-5-PHENYL- THIOPHENE-2-CARBOXYLIC ACID] it is less than 5 µM.

Take `CCC(=O)N(Cc1ccc(C)cc1)c1cc(-c2ccccc2)sc1C(=O)O` [Compound 467, 3-[(4-METHYL-BENZYL)-PROPIONYL- AMINO]-5-PHENYL-THIOPHENE-2- CARBOXYLIC ACID]: the IC50 fell in the range of 5 to 20 µM. Same read-out and setting: then `COCC(=O)N(Cc1cccc(Cl)c1)c1cc(-c2ccccc2)sc1C(=O)O` [Compound 478, 3-[(3-CHLORO-BENZYL)-(2-METHOXY- ACETYL)-AMINO]-5-PHENYL-THIOPHENE- 2-CARBOXYLIC ACID], with greater than 20 µM.

The same assay, now with this note: related polymerase activity (Example 27 list); read-out: IC50.
`CC(=O)c1ccc(-c2cc(N(C(=O)c3ccc(Cl)cc3Cl)C(C)C)c(C(=O)O)s2)cc1` [Compound 355, 5-(4-ACETYL-PHENYL)-3-[)2,4-DICHLORO- BENZOYL)-ISOPROPYL-AMINO]- THIOPHENE-2-CARBOXYLIC ACID]: the IC50 was less than 5 µM. `Cc1ccccc1S(=O)(=O)Nc1cc(-c2ccc(C(N)=O)cc2)sc1C(=O)O` [Compound 282, 5-(4-CARBAMOYL-PHENYL)-3-(TOLUENE-2-SULFONYLAMINO)-THIOPHENE-2-CARBOXYLIC ACID]: the IC50 fell in the range of 5 to 20 µM. Take `Cc1ccccc1S(=O)(=O)Nc1cc(-c2cn[nH]c2)sc1C(=O)O` [Compound 170, 5-(1H-PYRAZOL-4-YL)-3-(TOLUENE-2-SULFONYLAMINO)-THIOPHENE-2-CARBOXYLIC ACID]: the IC50 is less than 5 µM. On the same count and under the same terms, then `Cc1ccc(C(=O)N(CCO)c2cc(-c3ccccc3)sc2C(=O)O)cc1` [Compound 203, 3-[(2-HYDROXY-ETHYL)-(4-METHYL-BENZOYL)-AMINO]-5-PHENYL-THIOPHENE-2-CARBOXYLIC ACID], with less than 5 µM; and `O=C(O)c1sc(-c2ccccc2)cc1NS(=O)(=O)c1ccc(Cl)s1` [Compound 37, 3-(5-CHLORO-THIOPHENE-2-SULFONYLAMINO)-5-PHENYL-THIOPHENE-2-CARBOXYLIC ACID], with less than 5 µM. As to `CC1CCC(C(=O)N(c2cc(-c3cccc(C(F)(F)F)c3)sc2C(=O)O)C(C)C)CC1` (centres unmarked) [Compound 381, 3-[ISOPROPYL-(4-METHYL- CYCLOHEXANECARBONYL)-AMINO]-5-(3- TRIFLUOROMETHYL-PHENYL)- THIOPHENE-2-CARBOXYLIC ACID], the IC50 was less than 5 µM. The same measure, in the same setting: then `CCCCCc1ccc(S(=O)(=O)Nc2cc(-c3ccccc3)sc2C(=O)O)cc1` [Compound 174, 3-(4-PENTYL-BENZENESULFONYLAMINO)-5-PHENYL-THIOPHENE-2-CARBOXYLIC ACID], with 5 to 20 µM; and `O=C(O)c1sc(-c2ccccc2)cc1NS(=O)(=O)c1ccccc1` [Compound 17, 3-BENZENESULFONYLAMINO-5-PHENYL-THIOPHENE-2-CARBOXYLIC ACID], with 5 to 20 µM; and `Cc1ccc(S(=O)(=O)Nc2c(C(=O)O)sc(-c3ccccc3)c2C)c(C)c1` [Compound 308, 3-(2,4-DIMETHYL- BENZENESULFONYLAMINO)-4-METHYL- 5-PHENYL-THIOPHENE-2-CARBOXYLIC ACID], with 5 to 20 µM. The same measure, in the same setting: then `CC(C)CN(C(=O)c1ccc(Cl)cc1Cl)c1cc(-c2ccccc2)sc1C(=O)O` [Compound 204, 3-[(2,4-DICHLORO-BENZOYL)-ISOBUTYL-AMINO]-5-PHENYL-THIOPHENE-2-CARBOXYLIC ACID], with less than 5 µM; and `CC(C)N(C(=O)c1ccc(Cl)cc1Cl)c1cc(-c2ccc(C(=O)O)cc2)sc1C(=O)O` [Compound 375, 5-(4-CARBOXY-PHENYL)-3-[(2,4- DICHLORO-BENZOYL)-ISOPROPYL- AMINO]-THIOPHENE-2-CARBOXYLIC ACID], with less than 5 µM; and `CC(C)N(C(=S)c1ccc(Cl)cc1Cl)c1cc(-c2ccccc2)sc1C(=O)O` [Compound 297, 3-[(2,4-DICHLORO-THIOBENZOYL)-ISOPROPYL-AMINO]-5-PHENYL-THIOPHENE-2-CARBOXYLIC ACID], with less than 5 µM. With `C=C(C)Cc1cc(N(C(=O)c2ccc(Cl)cc2Cl)C(C)C)c(C(=O)O)s1` [Compound 338, 3-[(2,4-DICHLORO-BENZOYL)- ISOPROPYL-AMINO]-5-(2-METHYL- ALLYL)-THIOPHENE- 2-CARBOXYLIC ACID], the IC50 was less than 5 µM. Still for that read-out and setting: then `Cc1ccccc1S(=O)(=O)Nc1cc(-c2cccs2)sc1C(=O)O` [Compound 56, 4-(TOLUENE-2-SULFONYLAMINO)-[2,2′]BITHIOPHENYL-5-CARBOXYLIC ACID], with less than 5 µM.

`Cc1ccccc1S(=O)(=O)Nc1cc(-c2ccc(Cl)cc2)sc1C(=O)O` [Compound 68, 5-(4-CHLORO-PHENYL)-3-(TOLUENE-2-SULFONYLAMINO)-THIOPHENE-2-CARBOXYLIC ACID]: the IC50 was less than 5 µM. Take `Cc1ccc(C(=O)N(Cc2ccc(F)cc2F)c2cc(-c3ccccc3)sc2C(=O)O)cc1` [Compound 336, 3-[(2,4-DIFLUORO-BENZYL)-(4-METHYL- BENZOYL)-AMINO]-5-PHENYL- THIOPHENE-2-CARBOXYLIC ACID]: the IC50 was less than 5 µM. On the same count and under the same terms, then `Cc1ccc(C(=O)N(C)c2cc(-c3cccnc3)sc2C(=O)O)cc1` [Compound 302, 3-[METHYL-(4-METHYL-BENZOYL)- AMINO]-5-PYRIDIN-3-YL-THIOPHENE-2- CARBOXYLIC ACID], with 5 to 20 µM; and `CC(=O)c1ccc(S(=O)(=O)Nc2cc(-c3ccccc3)sc2C(=O)O)cc1` [Compound 140, 3-(4-ACETYL-BENZENESULFONYLAMINO)-5-PHENYL-THIOPHENE-2-CARBOXYLIC ACID], with 5 to 20 µM; and `COC(=O)c1cc(S(=O)(=O)Nc2cc(-c3ccccc3)sc2C(=O)O)oc1C` [Compound 154, 5-(2-CARBOXY-5-PHENYL-THIOPHEN-3-YLSULFAMOYL)-2-METHYL-FURAN-3-CARBOXYLIC ACID METHYL ESTER], with less than 5 µM. Still for that read-out and setting: the figure for `COc1ccc(S(=O)(=O)Nc2cc(-c3ccccc3)sc2C(=O)O)c([N+](=O)[O-])c1` [Compound 152, 3-(4-METHOXY-2-NITRO-BENZENESULFONYLAMINO)-5-PHENYL-THIOPHENE-2-CARBOXYLIC ACID] is 5 to 20 µM.

For the molecule `Cc1ccccc1S(=O)(=O)Nc1cc(-c2ccncc2)sc1C(=O)O` [Compound 86, 5-PYRIDIN-4-YL-3-(TOLUENE-2-SULFONYLAMINO)-THIOPHENE-2-CARBOXYLIC ACID], the IC50 is less than 5 µM.

Turning to `Cc1ccc(C(=O)N(C)c2cc(-c3cccc(Cl)c3)sc2C(=O)O)cc1` [Compound 269, 5-(3-CHLORO-PHENYL)-3-[METHYL-(4-METHYL-BENZOYL)-AMINO]-THIOPHENE-2-CARBOXYLIC ACID], the IC50 is less than 5 µM.

With `CC(C)Cc1cc(N(C(=O)c2ccc(Cl)cc2Cl)C(C)C)c(C(=O)O)s1` [Compound 346, 3-[(2,4-DICHLORO-BENZOYL)- ISOPROPYL-AMINO]-5-ISOBUTYL- THIOPHENE-2-CARBOXYLIC ACID], the IC50 is less than 5 µM. As for `CC(=O)c1ccc(-c2cc(N(C(=O)c3ccc(Cl)cc3Cl)C(C)C)c(C(=O)O)s2)s1` [Compound 358, 5′-ACETYL-4-[(2,4-DICHLORO-BENZOYL)- ISOPROPYL-AMINO]-[2,2′]BITHIOPHENYL- 5-CARBOXYLIC ACID], the IC50 is less than 5 µM.

For `Cc1ccccc1S(=O)(=O)Nc1cc(-c2cc3ccccc3s2)sc1C(=O)O` [Compound 230, 5-BENZO[B]THIOPHEN-2-YL-3-(TOLUENE-2-SULFONYLAMINO)-THIOPHENE-2-CARBOXYLIC ACID], the IC50 was less than 5 µM. Regarding `CCCCc1ccc(C(=O)N(C)c2cc(-c3ccccc3)sc2C(=O)O)cc1` [Compound 188, 3-[(4-BUTYL-BENZOYL)-METHYL-AMINO]-5-PHENYL-THIOPHENE-2-CARBOXYLIC ACID], the IC50 was greater than 20 µM. Consider `C=CCN(C(=O)c1ccc(C)cc1)c1cc(-c2ccccc2)sc1C(=O)O` [Compound 162, 3-[ALLYL-(4-METHYL-BENZOYL)-AMINO]-5-PHENYL-THIOPHENE-2-CARBOXYLIC ACID], for which the IC50 is less than 5 µM. Same read-out and setting: the figure for `CC(C(=O)O)N(C(=O)c1ccc(Cl)cc1Cl)c1cc(-c2ccccc2)sc1C(=O)O` (centres unmarked) [Compound 299, 3-[(1-CARBOXY-ETHYL)-(2,4-DICHLORO- BENZOYL)-AMINO]-5-PHENYL- THIOPHENE-2-CARBOXYLIC ACID] is less than 5 µM. Regarding `Cc1ccc(C(=O)N(C)c2cc(-c3ccccc3)sc2C(=O)O)c(C)c1` [Compound 131, 3-[(2,4-DIMETHYL-BENZOYL)-METHYL-AMINO]-5-PHENYL-THIOPHENE-2 CARBOXYLIC ACID], the IC50 is less than 5 µM.
